Here are results for 13 compounds from ChEMBL document CHEMBL1201862, “PubChem BioAssay data set” (2004).

Each structure is given as a SMILES string.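 Five compound concentrations were applied to cells in 96-well plates for 48 hours; endpoints were derived by simple linear interpolation of the resulting dose-response curve. GI50 = concentration required for 50% inhibition of growth.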 Activity calls are given as the source filed them. No stated cut-off is given here; in the data, active = GI50 up to about 1.1 µM and inactive = higher.

Some test systems named below: A498; A549; EKVX; HT-29; K562; KM12; M14; MOLT-4; NCI-H522; OVCAR-4; RPMI-8226; RXF 393; SNB-75; UACC-257; UACC-62; UO-31.
Test in all cases: growth of human tumour cells (NCI), 48 h

Take `COc1cc2c3c(c1OC)C1(C=CC(=O)C=C1)CC3N(C(=O)OC(C)(C)C(Cl)(Cl)Cl)CC2` (stereo not given): the GI50 with A498 is 16.7 µM (inactive); with A549 it was 10.5 µM (inactive); with EKVX, 16.8 µM (inactive); in the assay on HT-29 it was 8.53 µM (inactive); with K562 it was 4.68 µM (inactive); with KM12, 9.2 µM (inactive). Further, the GI50 was 14.5 µM (inactive) in the assay on M14; 2.97 µM (inactive) in the assay with MOLT-4; 8.93 µM (inactive) in the assay on NCI-H522; 12.5 µM (inactive) with OVCAR-4; 2.23 µM (inactive) with RPMI-8226; 4.16 µM (inactive) in the assay on RXF 393. The GI50 in the assay on SNB-75 is 15.1 µM (inactive); in the assay with UACC-257 it was 10.4 µM (inactive); in the assay on UACC-62, 13.1 µM (inactive); in the assay on UO-31, 14.5 µM (inactive).

For the compound `CN1C=C(C(N)=O)C2CC(O)[C@@](NC(=O)CS(N)(=O)=O)(C(=O)O)C2C1` (stereo not given in full), the GI50 with A498 is 2.03 µM (inactive); with A549, 3.25 µM (inactive); in the assay with EKVX it was 4.19 µM (inactive); in the assay on HT-29, 3.33 µM (inactive); in the assay with K562, 2.17 µM (inactive); in the assay with KM12, 20.7 µM (inactive). In addition, the GI50 was 1.49 µM (inactive) with M14; 1.7 µM (inactive) with MOLT-4; 11.7 µM (inactive) in the assay on NCI-H522; 2.09 µM (inactive) with OVCAR-4; 18 µM (inactive) with RPMI-8226; 1.76 µM (inactive) in the assay on RXF 393. Further, the GI50 in the assay with SNB-75 is 2.23 µM (inactive); in the assay on UACC-257 it was 5.24 µM (inactive); in the assay with UACC-62, 2.17 µM (inactive); with UO-31, 3.05 µM (inactive).

With `O=C(CC(=O)C1CCOC1=O)C(=O)Nc1cccc(Cl)c1` (stereo not given), the GI50 in the assay with A498, in the assay with A549, with EKVX, in the assay on HT-29, in the assay on K562 and in the assay with KM12 was > 100 µM (inactive) each time. For the same compound, the GI50 in the assay with M14, in the assay with MOLT-4, with NCI-H522, in the assay with OVCAR-4, in the assay with RPMI-8226 and in the assay on RXF 393 was > 100 µM (inactive) in each case. Besides, the GI50 in the assay on SNB-75, in the assay on UACC-257, in the assay on UACC-62 and in the assay on UO-31 was > 100 µM (inactive) throughout.

For `CN1C(=O)CNS1(=O)=O`, the GI50 with A498, in the assay with A549, in the assay with HT-29, in the assay with K562, with KM12 and in the assay on M14 was > 100 µM (inactive) throughout. Moreover, the GI50 in the assay with MOLT-4 was > 100 µM (inactive); in the assay on RPMI-8226 it was > 100 µM (inactive); in the assay with RXF 393 it was > 100 µM (inactive); in the assay on SNB-75, 38.1 µM (inactive); with UACC-257, > 100 µM (inactive); in the assay on UACC-62, > 100 µM (inactive). Besides, the GI50 with UO-31 was > 100 µM (inactive).

As for `CC(=O)OC1COC(N2C(=O)C(=O)c3cc(Br)ccc32)C(OC(C)=O)C1OC(C)=O` (stereo not given), the GI50 with A498, in the assay with A549, in the assay on EKVX, in the assay on HT-29, in the assay on K562 and with KM12 was > 100 µM (inactive) throughout. The GI50 in the assay on M14 was > 100 µM (inactive); in the assay on MOLT-4, 96.8 µM (inactive); in the assay on NCI-H522 it was > 100 µM (inactive); in the assay on OVCAR-4, > 100 µM (inactive); in the assay on RPMI-8226, > 100 µM (inactive); in the assay with RXF 393, > 100 µM (inactive). In addition, the GI50 with SNB-75, in the assay with UACC-257, with UACC-62 and in the assay with UO-31 was > 100 µM (inactive) in each case.

Turning to `Cc1cc(C)[n+](CCOc2ccc(/C(=C(/Cl)c3ccccc3)c3ccccc3)cc2)c(C)c1.[O-][Cl+3]([O-])([O-])[O-]`, the GI50 with A498 was 3.87 µM (inactive); in the assay with A549, 1.55 µM (inactive); in the assay on EKVX, 0.887 µM (active); with HT-29 it was 0.809 µM (active); with K562 it was 0.257 µM (active); with KM12 it was 0.697 µM (active). Besides, the GI50 in the assay on M14 is 2 µM (inactive); in the assay on MOLT-4 it was 1.28 µM (inactive); in the assay with NCI-H522, 0.39 µM (active); in the assay with OVCAR-4, 0.944 µM (active); in the assay with RPMI-8226 it was 0.348 µM (active); in the assay with RXF 393, 2.49 µM (inactive). For the same compound, the GI50 in the assay on SNB-75 is 0.697 µM (active); in the assay with UACC-257, 0.692 µM (active); in the assay on UACC-62, 0.741 µM (active); with UO-31 it was 14.8 µM (inactive).

Take `COc1cc2c(oc(=O)c3cc4ccoc4c(OC)c32)c2cccc(O)c12`: the GI50 with A498, in the assay on A549, with EKVX, in the assay with HT-29, in the assay with K562 and in the assay on KM12 was > 100 µM (inactive) throughout. The GI50 in the assay on M14, in the assay with MOLT-4, in the assay with NCI-H522, in the assay on OVCAR-4, in the assay on RPMI-8226 and with RXF 393 was > 100 µM (inactive) in each case. The GI50 was 60.3 µM (inactive) in the assay with SNB-75, > 100 µM (inactive) in the assay on UACC-257, > 100 µM (inactive) in the assay on UACC-62 and > 100 µM (inactive) in the assay on UO-31.

Turning to `O=[N+]([O-])c1nc(-c2ccccn2)[nH]c1[N+](=O)[O-]`, the GI50 is > 100 µM (inactive) with A498; 53.8 µM (inactive) with A549; > 100 µM (inactive) in the assay with EKVX; 47.5 µM (inactive) with HT-29; > 100 µM (inactive) in the assay with K562; > 100 µM (inactive) in the assay with KM12. Further, the GI50 in the assay on M14 is 80.5 µM (inactive); in the assay on MOLT-4 it was 39.2 µM (inactive); in the assay on NCI-H522, 18.6 µM (inactive); with OVCAR-4 it was 44.2 µM (inactive); in the assay with RPMI-8226 it was > 100 µM (inactive); with RXF 393, 76.7 µM (inactive). In addition, the GI50 in the assay with SNB-75 is 64 µM (inactive); with UACC-257, 53.2 µM (inactive); with UACC-62, 26.3 µM (inactive); in the assay on UO-31, 70.3 µM (inactive).

Consider `CN(C)c1ccc(/C=C/C=C\c2cc(/C=C/C=C/c3ccc(N(C)C)cc3)[s+]c3ccccc23)cc1.[O-][Cl+3]([O-])([O-])[O-]`, for which the GI50 in the assay with A498, in the assay with A549, in the assay with EKVX, in the assay with HT-29, with K562 and with KM12 was > 100 µM (inactive) throughout. Moreover, the GI50 was 14.5 µM (inactive) in the assay on M14; > 100 µM (inactive) in the assay with MOLT-4; 10 µM (inactive) in the assay with NCI-H522; 10 µM (inactive) in the assay on OVCAR-4; 55.3 µM (inactive) with RPMI-8226; 13.1 µM (inactive) with RXF 393. In addition, the GI50 in the assay on SNB-75 was > 100 µM (inactive); with UACC-257, 59.4 µM (inactive); with UACC-62, 28.2 µM (inactive); in the assay on UO-31, > 100 µM (inactive).

With `O=C(O)c1ccc(NC(=O)C2C(=O)C(=O)N(c3ccc(C(=O)O)cc3)C2=O)cc1` (stereo not given), the GI50 with A498, with A549, with EKVX, with HT-29, with K562 and in the assay on KM12 was > 100 µM (inactive) each time. Besides, the GI50 with MOLT-4, in the assay on NCI-H522, with OVCAR-4, in the assay on RPMI-8226, in the assay with RXF 393 and in the assay on SNB-75 was > 100 µM (inactive) each time. The GI50 with UACC-257, with UACC-62 and in the assay with UO-31 was > 100 µM (inactive) throughout.

With `CC(=O)C(CN(Cc1ccccc1)Cc1ccccc1)C(c1ccccc1)c1c(O)c2ccccc2oc1=O` (stereo not given), the GI50 in the assay on A498, in the assay on A549, in the assay with EKVX, with HT-29, with K562 and in the assay with KM12 was > 100 µM (inactive) in each case. The GI50 with M14, in the assay on NCI-H522, with OVCAR-4, in the assay on RPMI-8226, in the assay with RXF 393 and in the assay on SNB-75 was > 100 µM (inactive) throughout. The GI50 in the assay on UACC-257, in the assay with UACC-62 and in the assay on UO-31 was > 100 µM (inactive) each time.

For `O=C(Nc1ccn(CCO)c(=O)n1)c1ccccc1`, the GI50 in the assay with A498, with A549, in the assay on EKVX, with HT-29, in the assay on K562 and in the assay with KM12 was > 100 µM (inactive) in each case. For the same compound, the GI50 in the assay on M14, with NCI-H522, in the assay on OVCAR-4, with RPMI-8226, with RXF 393 and with SNB-75 was > 100 µM (inactive) each time. Further, the GI50 in the assay with UACC-257, in the assay with UACC-62 and with UO-31 was > 100 µM (inactive) throughout.

Turning to `COc1ccc2nc3cc(Cl)ccc3c(Sc3ccc(NC(C)=O)cc3)c2c1`, the GI50 in the assay on A498 was > 41.7 µM (inactive); in the assay on A549, > 53.2 µM (inactive); in the assay on HT-29 it was 92.3 µM (inactive); with K562, 9.71 µM (inactive); with KM12, 9.33 µM (inactive); in the assay on M14, 11.6 µM (inactive). Moreover, the GI50 was 6.87 µM (inactive) with MOLT-4; 2.79 µM (inactive) in the assay on NCI-H522; > 24.4 µM (inactive) with OVCAR-4; 26.3 µM (inactive) in the assay on RPMI-8226; 12.6 µM (inactive) in the assay on RXF 393; > 24 µM (inactive) in the assay with SNB-75. Also, the values for the GI50 with UACC-257 and in the assay with UACC-62 were 17.4 µM (inactive) and 15.3 µM (inactive), respectively.
